# According to article PMC6523531, “Mechanistic Studies on the Absorption-Enhancing Effects of Gemini Surfactant on the Intestinal Absorption of Poorly Absorbed Hydrophilic Drugs in Rats” (Pharmaceutics, 2019):
# Tests used:
# claudin-4 = assay: Western blotting of claudin-4 in rat small intestine after in situ treatment; format: in vivo
# Description: (§1) Western blotting was performed by the method described previously with slight modifications. Three male Wistar rats weighing 250 g were prepared to perform an in situ closed-loop method on the small intestine, as mentioned above. A control study, a treatment study, and a pretreatment study were conducted on the first, second, and third rat, respectively. For the control study, only PBS solution (pH 7.4) was administered into the small intestine, and then, the rat was sacrificed, while for the treatment study, SLG-30 was administered for 1 h, and then, the rat was sacrificed without washing the SLG-30 out. The pretreatment study was performed by administrating SLG-30 for 1 h then washing it out with PBS solution (pH 7.4), followed by sacrificing the rat after 4 h. The small intestine (60 cm) of three rats was taken and treated, as mentioned above, for extracting the BBMVs. […]
# (§2) The expression levels of proteins from the claudin family, in the homogenate of the small intestine membrane, were evaluated by western blotting. […] The signals were visualized by luminescence imaging (Fujifilm Luminescent Image Analyzer LAS4000 System, Tokyo, Japan). The intensity of each signal was corrected using the values obtained from the β-actin bands, and the relative protein intensity was expressed as the fold change compared to the relative protein intensity in the normal group.
# claudin-1 = assay: Western blotting of claudin-1 in rat small intestine after in situ treatment; format: in vivo; settings: treatment with 0.5% (v/v) SLG-30 for 1 h, vs control
# Description: as §1, §2
# Caco-2 cells = assay: Caco-2 cell damage by LDH release; format: cell-based, Human
# Description: After the transport studies were over, the solution on the apical side of each well was collected. Cell injury caused by SLG-30 was determined by tracking the LDH release. The cell precipitate and the monolayers left on the filters were solubilized with 1% (v/v) Triton X-100. The solutions from apical sides and the lysates were centrifuged for 7 min at 200× g at a temperature of 4 °C. The activities of LDH in the supernatant were measured. (LDHrelease) stands for the activity of the LDH released into the apical side in the existence of SLG-30. (LDHcell) stands for the activity of the LDH obtained from the cell lysate. LDHreleased% was calculated by the following equation:LDHrelease% = LDHrelease × 100/(LDHrelease + LDHcells)
# [1] = tested on: brush-border membrane vesicles (BBMVs); assay: Membrane fluidity of BBMVs by fluorescence polarization (fluorescence anisotropy); settings: rat BBMVs, 37 °C, SLG-30 0.1-1.0% v/v, vs control, n = 4
# Description: To prepare BBMVs, we followed the methods as reported previously with a slight modification. Briefly, an in situ small intestinal loop was prepared in each rat, as mentioned above, and then, PBS (pH 7.4) was administered into the loop. The fat was trimmed off from the small intestine and mesentery. Then, the whole small intestine was soaked in ice-cold PBS (pH 7.4). The small intestine was divided into 10 cm segments. Mucosa was scraped out with a slide glass from each of these segments and used for subsequent studies. BBMVs were prepared by the divalent cation precipitation method using MgCl2 in the presence of ethylenebis (oxyethylenenitrilo) tetraacetic acid (EGTA). Briefly, the collected mucosa was homogenized in a buffer containing mannitol (300 mM), EGTA (5 mM), and Tris (pH 7.4) (12 mM) by using a tissue homogenizer. An aqueous solution of 10 mM magnesium chloride was added to the homogenate. The homogenate was centrifuged at 3000× g for 15 min. The supernatant was then centrifuged at 32,000× g for 30 min. The pellet was resuspended in a buffer containing mannitol (300 mM), EGTA (5 mM), and Tris (pH 7.4) (12 mM) by using a 26-G needle. The protein concentration was determined by the BCA method using bovine serum albumin as a standard, and the final concentration was adjusted to 1 mg/ml in each Eppendorf tube. The samples were frozen by liquid nitrogen and kept at −80 °C for further studies.
# The BBMVs (100 μg protein) were incubated with 1 μM DPH, with 0.5 μM tma-DPH or with 5 μM DNS-Cl in HEPES-Tris buffer (25 mM HEPES, 5.4 mM KCl, 1.8 mM CaCl2, 0.8 mM MgSO4, 140 mM NaCl, 5 mM glucose, pH 7.4 adjusted by 1 M Tris) in the dark at 37 °C for 30 min [25, 28]. Then, various concentrations (0.1% v/v, 0.25% v/v, 0.5% v/v, and 1.0% v/v) of SLG-30 were added. Then, the samples were incubated in the dark for 1 min at 37 °C. For the control group, the same procedure was carried out by adding the HEPES-Tris buffer only. The fluorescence intensities and the steady-state polarization of fluorescence expressed as the fluorescence anisotropy, r, of the labeled membrane vesicles were measured at 37 °C. The excitation and emission wavelengths were λex = 360 nm, and λem = 430 nm for DPH and tma-DPH and λex = 380 nm and λem = 480 nm for DNS-Cl. The measurements were carried out by using a Hitachi Spectrofluorometer (F-2000 Spectrofluorometer, Hitachi Seisakusho Corp, Yokohama, Japan) equipped with a polarizer set.
# The fluorescence anisotropy (r) was calculated using the following equation: r=IV−IH/IV+2IH where IV and IH respectively represent the […] fluorescence intensities to the polarized excitation plane.
compound,measurement,setting,value
"CCCCCCCCCCCC(=O)NC(CCC(=O)NCCCCC(NC(=O)CCC(NC(=O)CCCCCCCCCCC)C(=O)O)C(=O)O)C(=O)O (centres unmarked) [SLG-30, sodium dilauramidoglutamide lysine]",claudin-4 expression level less than the control,"claudin-4; pretreatment study: 0.5% (v/v) SLG-30 for 1 h, washed out, proteins extracted after 4 h",~45%
same,decrease of the intensity of the claudin-4 band,"claudin-4; treatment with 0.5% (v/v) SLG-30 for 1 h, rat small intestine, vs control",64%
same,decrease of the intensity of the claudin-1 band,claudin-1,57%
same,activity of LDH released from Caco-2 cells vs control,"Caco-2 cells; SLG-30 0.001-0.1% (v/v), after the transport studies, n = 6",did not increase
same,Caco-2 cell injury,Caco-2 cells; SLG-30 at concentrations used in in vivo studies,the cells were detached and severely injured
same,fluorescence anisotropy of tma-DPH (outer lipid bilayers),[1]; 0.5 μM tma-DPH,significantly increased
same,fluorescence anisotropy of DPH (inner lipid bilayers),[1]; 1 μM DPH,slightly decreased
same,fluorescence anisotropy of DNS-Cl (protein portion),"[1]; 5 μM DNS-Cl, p < 0.01",significantly reduced
